Test results reported in publication PMC5218480 (PLoS ONE, 2017).

Tested on: MV-4-11 cells
Assay: Gene expression microarray analysis (Affymetrix PrimeView) and GSEA
Format: cell-based, human
Design: RFU PODN (11730768_x_at) / Fold change /veh PODN (11730768_x_at) / RFU LINC00158 (11744669_a_at) / Fold change /veh LINC00158 (11744669_a_at) / RFU DUSP10 (11751237_a_at) / Fold change /veh DUSP10 (11751237_a_at) / RFU ID3 (11757404_x_at) / Fold change /veh ID3 (11757404_x_at) / RFU PLEKHG5 (11737974_s_at) / Fold change /veh PLEKHG5 (11737974_s_at) / RFU LRRC4B (11730491_at) / Fold change /veh LRRC4B (11730491_at) / RFU GIMAP4 (11747438_a_at) / Fold change /veh GIMAP4 (11747438_a_at) / RFU KRT8 (11758183_x_at) / Fold change /veh KRT8 (11758183_x_at) / RFU CNN1 (11734310_a_at) / Fold change /veh CNN1 (11734310_a_at) / RFU VPS37D (11726825_at) / Fold change /veh VPS37D (11726825_at) / RFU C10orf10 (11716522_x_at) / Fold change /veh C10orf10 (11716522_x_at) / RFU KIR2DL2 /// KIR2DL4 /// KIR2DL5A /// KIR2DL5B /// KIR2DS1 /// KIR2DS2 /// KIR2DS3 /// KIR2DS4 /// KIR3DL3 /// KIR3DL3 /// KIR3DS1 (11738374_at) / Fold change /veh KIR2DL2 /// KIR2DL4 /// KIR2DL5A /// KIR2DL5B /// KIR2DS1 /// KIR2DS2 /// KIR2DS3 /// KIR2DS4 /// KIR3DL3 /// KIR3DL3 /// KIR3DS1 (11738374_at) / RFU C1QL1 (11718748_at) / Fold change /veh C1QL1 (11718748_at) / RFU TMPRSS4 (11747572_a_at) / Fold change /veh TMPRSS4 (11747572_a_at) / RFU HAMP (11756126_x_at) / Fold change /veh HAMP (11756126_x_at) / RFU RNFT2 (11725882_a_at) / Fold change /veh RNFT2 (11725882_a_at) / RFU NR4A2 (11747474_a_at) / Fold change /veh NR4A2 (11747474_a_at) / RFU ABCC12 (11746883_a_at) / Fold change /veh ABCC12 (11746883_a_at) / RFU TMEM136 (11760407_x_at) / Fold change /veh TMEM136 (11760407_x_at) / RFU CLDN22 /// WWC2 (11732394_at) / Fold change /veh CLDN22 /// WWC2 (11732394_at) / RFU HLA-DPB1 (11760878_x_at) / Fold change /veh HLA-DPB1 (11760878_x_at) / RFU SPINT1 (11716480_a_at) / Fold change /veh SPINT1 (11716480_a_at) / RFU GAP43 (11754022_s_at) / Fold change /veh GAP43 (11754022_s_at) / RFU A4GNT (11735810_at) / Fold change /veh A4GNT (11735810_at) / RFU PRB3 (11715151_x_at) / Fold change /veh PRB3 (11715151_x_at) / RFU TUBB4B (11761932_at) / Fold change /veh TUBB4B (11761932_at) / RFU CAPN14 (11732068_a_at) / Fold change /veh CAPN14 (11732068_a_at) / RFU TMCC2 (11721928_a_at) / Fold change /veh TMCC2 (11721928_a_at) / RFU IRGQ (11745062_a_at) / Fold change /veh IRGQ (11745062_a_at) / RFU FAM174B (11720279_a_at) / Fold change /veh FAM174B (11720279_a_at) / RFU TMPRSS4 (11748680_a_at) / Fold change /veh TMPRSS4 (11748680_a_at) / RFU FAM212B (11763350_a_at) / Fold change /veh FAM212B (11763350_a_at) / RFU PLEKHG5 (11743358_a_at) / Fold change /veh PLEKHG5 (11743358_a_at) / RFU ZSCAN30 (11745921_a_at) / Fold change /veh ZSCAN30 (11745921_a_at) / RFU CMKLR1 (11741424_a_at) / Fold change /veh CMKLR1 (11741424_a_at) / RFU LOC101060620 /// MAPK8IP1 (11723275_at) / Fold change /veh LOC101060620 /// MAPK8IP1 (11723275_at) / RFU SPTSSB (11747773_x_at) / Fold change /veh SPTSSB (11747773_x_at) / RFU PRSS12 (11739890_at) / Fold change /veh PRSS12 (11739890_at) / RFU BIN1 (11741810_x_at) / Fold change /veh BIN1 (11741810_x_at) / RFU WNT11 (11732464_a_at) / Fold change /veh WNT11 (11732464_a_at) / RFU C10orf10 (11716521_a_at) / Fold change /veh C10orf10 (11716521_a_at) / RFU C5orf56 (11738089_at) / Fold change /veh C5orf56 (11738089_at) / RFU CYB561 (11721691_x_at) / Fold change /veh CYB561 (11721691_x_at) / RFU ANKRD19P (11752326_a_at) / Fold change /veh ANKRD19P (11752326_a_at) / RFU OR2T12 /// OR2T33 /// OR2T8 (11738714_s_at) / Fold change /veh OR2T12 /// OR2T33 /// OR2T8 (11738714_s_at) / RFU VCAN (11748164_a_at) / Fold change /veh VCAN (11748164_a_at) / RFU JSRP1 (11732532_at) / Fold change /veh JSRP1 (11732532_at) / RFU KRTAP10-11 (11738290_x_at) / Fold change /veh KRTAP10-11 (11738290_x_at) / RFU MYO3A (11730013_a_at) / Fold change /veh MYO3A (11730013_a_at) / RFU EBF3 (11725865_a_at) / Fold change /veh EBF3 (11725865_a_at) / RFU CAMK2N1 (11719241_x_at) / Fold change /veh CAMK2N1 (11719241_x_at) / RFU C5orf56 (11738088_a_at) / Fold change /veh C5orf56 (11738088_a_at) / RFU OLFML3 (11715873_a_at) / Fold change /veh OLFML3 (11715873_a_at) / RFU LOC100653217 /// NTM (11731650_a_at) / Fold change /veh LOC100653217 /// NTM (11731650_a_at) / RFU MAPK11 (11762145_a_at) / Fold change /veh MAPK11 (11762145_a_at) / RFU FIZ1 (11724087_x_at) / Fold change /veh FIZ1 (11724087_x_at) / RFU OASL (11726364_x_at) / Fold change /veh OASL (11726364_x_at) / RFU SOX15 (11748057_x_at) / Fold change /veh SOX15 (11748057_x_at) / RFU CD79A (11719716_a_at) / Fold change /veh CD79A (11719716_a_at) / RFU HIST1H1D (11736915_at) / Fold change /veh HIST1H1D (11736915_at) / RFU CASKIN2 (11723855_a_at) / Fold change /veh CASKIN2 (11723855_a_at) / RFU LOC730098 (11760151_x_at) / Fold change /veh LOC730098 (11760151_x_at) / RFU OR4N2 (11742367_at) / Fold change /veh OR4N2 (11742367_at) / RFU PRRT2 (11749266_a_at) / Fold change /veh PRRT2 (11749266_a_at) / RFU SNX32 (11753110_a_at) / Fold change /veh SNX32 (11753110_a_at) / RFU CDHR5 (11726645_a_at) / Fold change /veh CDHR5 (11726645_a_at) / RFU RCAN1 (11760418_a_at) / Fold change /veh RCAN1 (11760418_a_at) / RFU FAM167A (11723789_a_at) / Fold change /veh FAM167A (11723789_a_at) / RFU FAM26E (11764081_at) / Fold change /veh FAM26E (11764081_at) / RFU ISYNA1 (11749810_s_at) / Fold change /veh ISYNA1 (11749810_s_at) / RFU ACY1 (11761880_at) / Fold change /veh ACY1 (11761880_at) / RFU 11764098_at / Fold change /veh 11764098_at / RFU SAMD14 (11745864_x_at) / Fold change /veh SAMD14 (11745864_x_at) / RFU NPB (11741838_a_at) / Fold change /veh NPB (11741838_a_at) / RFU TMPRSS6 (11731388_a_at) / Fold change /veh TMPRSS6 (11731388_a_at) / RFU KRTAP10-2 (11738614_at) / Fold change /veh KRTAP10-2 (11738614_at) / RFU ARHGAP8 /// PRR5-ARHGAP8 (11727945_x_at) / Fold change /veh ARHGAP8 /// PRR5-ARHGAP8 (11727945_x_at) / RFU KRTAP5-7 /// NADSYN1 (11734609_at) / Fold change /veh KRTAP5-7 /// NADSYN1 (11734609_at) / RFU RASL12 (11751679_a_at) / Fold change /veh RASL12 (11751679_a_at) / RFU CDKN2B (11736163_a_at) / Fold change /veh CDKN2B (11736163_a_at) / RFU PRF1 (11729649_at) / Fold change /veh PRF1 (11729649_at) / RFU, ZNF638 /// ZNF638-IT1 / Fold change vs veh, ZNF638 /// ZNF638-IT1 / RFU, PANK3 / Fold change vs veh, PANK3 / RFU, SH3YL1 / Fold change vs veh, SH3YL1 / RFU, ZEB2 / Fold change vs veh, ZEB2 / RFU, NRIP1 / Fold change vs veh, NRIP1 / RFU, PTTG1IP / Fold change vs veh, PTTG1IP / RFU, CAPN2 / Fold change vs veh, CAPN2 / RFU, MED14 / Fold change vs veh, MED14 / RFU, SNORA58 / Fold change vs veh, SNORA58 / RFU, C1orf63 / Fold change vs veh, C1orf63 / RFU, LRRFIP1 / Fold change vs veh, LRRFIP1 / RFU, NDUFAF7 / Fold change vs veh, NDUFAF7 / RFU, SLC12A2 / Fold change vs veh, SLC12A2 / RFU, IBTK / Fold change vs veh, IBTK / RFU, ESF1 / Fold change vs veh, ESF1 / Fold change vs veh, TMEM50B / RFU, TAOK1 / Fold change vs veh, TAOK1 / RFU, ACBD3 / Fold change vs veh, ACBD3 / RFU, TMA16 / Fold change vs veh, TMA16 / RFU, RWDD3 / Fold change vs veh, RWDD3 / RFU, BCAT1 / Fold change vs veh, BCAT1 / RFU, EDEM3 / Fold change vs veh, EDEM3 / RFU, TMEM33 / Fold change vs veh, TMEM33 / RFU, WDR75 / Fold change vs veh, WDR75 / RFU, AHCTF1 / Fold change vs veh, AHCTF1 / RFU, TFRC / Fold change vs veh, TFRC / RFU, ZDHHC17 / Fold change vs veh, ZDHHC17 / RFU, NOM1 / Fold change vs veh, NOM1 / RFU, ARL8B / Fold change vs veh, ARL8B / RFU, ZBTB11 / Fold change vs veh, ZBTB11 / RFU, TAMM41 / Fold change vs veh, TAMM41 / RFU, KIAA1704 /// LOC100996395 / Fold change vs veh, KIAA1704 /// LOC100996395 / RFU, ING1 / Fold change vs veh, ING1 / RFU, TRMT61B / Fold change vs veh, TRMT61B / RFU, FUBP3 / Fold change vs veh, FUBP3 / RFU, TP53 / Fold change vs veh, TP53 / RFU, TNKS2 / Fold change vs veh, TNKS2 / RFU, ZFP14 / Fold change vs veh, ZFP14 / RFU, ACTR2 / Fold change vs veh, ACTR2 / RFU, PPP3R1 / Fold change vs veh, PPP3R1 / RFU, PIK3R1 / Fold change vs veh, PIK3R1 / RFU, HNRNPA1 / Fold change vs veh, HNRNPA1 / RFU, RNF170 / Fold change vs veh, RNF170 / RFU, ZNF28 / Fold change vs veh, ZNF28 / RFU, RNGTT / Fold change vs veh, RNGTT / RFU, OGT / Fold change vs veh, OGT / RFU, BRD1 / Fold change vs veh, BRD1 / RFU, MARS / Fold change vs veh, MARS / RFU, ZNF655 / Fold change vs veh, ZNF655 / RFU, FAHD1 / Fold change vs veh, FAHD1 / RFU, BDP1 / Fold change vs veh, BDP1 / RFU, LRRCC1 / Fold change vs veh, LRRCC1 / RFU, ARID1A / Fold change vs veh, ARID1A / RFU, ZNF146 / Fold change vs veh, ZNF146 / RFU, ZNF330 / Fold change vs veh, ZNF330 / RFU, GPN3 / Fold change vs veh, GPN3 / RFU, C9orf123 / Fold change vs veh, C9orf123 / RFU, N4BP2L2 / Fold change vs veh, N4BP2L2 / RFU, ARFIP1 / Fold change vs veh, ARFIP1 / RFU, FAM179B / Fold change vs veh, FAM179B / RFU, BCL10 / Fold change vs veh, BCL10 / RFU, UHRF1BP1L / Fold change vs veh, UHRF1BP1L / RFU, BET1 / Fold change vs veh, BET1 / RFU, CNOT2 / Fold change vs veh, CNOT2 / RFU, ZNF268 / Fold change vs veh, ZNF268 / Fold change vs veh, ZNF507 / RFU, DGCR2 / Fold change vs veh, DGCR2 / RFU, WDSUB1 / Fold change vs veh, WDSUB1 / Fold change vs veh, HSP90B1 /// MIR3652 / RFU, ADSS / Fold change vs veh, ADSS / RFU, GK / Fold change vs veh, GK / RFU, ZNF148 / Fold change vs veh, ZNF148 / RFU, TAF9 / Fold change vs veh, TAF9 / RFU, SLC1A5 / Fold change vs veh, SLC1A5 / RFU, SLMO2 / Fold change vs veh, SLMO2 / RFU, ABCC4 / Fold change vs veh, ABCC4 / RFU, LOC101060439 /// RAP1B / Fold change vs veh, LOC101060439 /// RAP1B / RFU, RFX7 / Fold change vs veh, RFX7 / RFU, GTPBP10 / Fold change vs veh, GTPBP10 / RFU, CNEP1R1 / Fold change vs veh, CNEP1R1 / RFU, BIVM-ERCC5 /// ERCC5 / Fold change vs veh, BIVM-ERCC5 /// ERCC5 / RFU, ILF3 / Fold change vs veh, ILF3 / RFU 11762660_at / Fold change /veh 11762660_at / RFU VCAN (11757783_s_at) / Fold change /veh VCAN (11757783_s_at) / RFU DDX43 (11728927_at) / Fold change /veh DDX43 (11728927_at) / RFU KRT8 (11758188_x_at) / Fold change /veh KRT8 (11758188_x_at) / RFU NKD1 (11759106_at) / Fold change /veh NKD1 (11759106_at) / RFU SRD5A1 (11742802_a_at) / Fold change /veh SRD5A1 (11742802_a_at) / RFU TPSAB1 /// TPSB2 (11721975_s_at) / Fold change /veh TPSAB1 /// TPSB2 (11721975_s_at) / RFU GSTM3 (11746129_a_at) / Fold change /veh GSTM3 (11746129_a_at) / RFU IL23R (11737362_x_at) / Fold change /veh IL23R (11737362_x_at) / RFU TMEM51 (11727254_a_at) / Fold change /veh TMEM51 (11727254_a_at) / RFU PIWIL2 (11732686_x_at) / Fold change /veh PIWIL2 (11732686_x_at) / RFU ORM1 (11744905_x_at) / Fold change /veh ORM1 (11744905_x_at) / RFU CCDC152 (11743942_at) / Fold change /veh CCDC152 (11743942_at) / RFU ECM1 (11717891_a_at) / Fold change /veh ECM1 (11717891_a_at) / RFU IL23R (11748794_a_at) / Fold change /veh IL23R (11748794_a_at) / RFU TNFAIP8L3 (11732012_x_at) / Fold change /veh TNFAIP8L3 (11732012_x_at) / RFU MBOAT4 (11741988_at) / Fold change /veh MBOAT4 (11741988_at) / RFU 11764193_at / Fold change /veh 11764193_at / RFU TMEM53 (11763286_at) / Fold change /veh TMEM53 (11763286_at) / RFU MAGEB2 (11727129_at) / Fold change /veh MAGEB2 (11727129_at) / RFU TMEM200A (11744735_a_at) / Fold change /veh TMEM200A (11744735_a_at) / RFU CCDC152 (11751479_a_at) / Fold change /veh CCDC152 (11751479_a_at) / RFU FAM211A (11726209_a_at) / Fold change /veh FAM211A (11726209_a_at) / RFU RGS16 (11746705_a_at) / Fold change /veh RGS16 (11746705_a_at) / RFU VCAN (11755009_s_at) / Fold change /veh VCAN (11755009_s_at) / RFU RHOB (11743442_s_at) / Fold change /veh RHOB (11743442_s_at) / RFU RGS16 (11720943_a_at) / Fold change /veh RGS16 (11720943_a_at) / RFU RGS16 (11720944_at) / Fold change /veh RGS16 (11720944_at) / RFU, VPS4B / Fold change vs veh, VPS4B / RFU, CREB1 / Fold change vs veh, CREB1 / RFU, DNAJC13 / Fold change vs veh, DNAJC13 / RFU, GNAQ / Fold change vs veh, GNAQ / RFU, CDK5R1 / Fold change vs veh, CDK5R1 / RFU, ZRANB3 / Fold change vs veh, ZRANB3 / RFU, CUL4A / Fold change vs veh, CUL4A / RFU, CCNY / Fold change vs veh, CCNY / RFU, UFL1 / Fold change vs veh, UFL1 / RFU, COG3 / Fold change vs veh, COG3 / RFU, DIAPH2 / Fold change vs veh, DIAPH2 / RFU, SKA2 / Fold change vs veh, SKA2 / RFU, AFF3 / Fold change vs veh, AFF3 / RFU, LMF1 / Fold change vs veh, LMF1 / RFU, IPO11 / Fold change vs veh, IPO11 / RFU, DFFB / Fold change vs veh, DFFB / RFU, FOXP1 / Fold change vs veh, FOXP1 / RFU, CARD8 / Fold change vs veh, CARD8 / RFU, STRN3 / Fold change vs veh, STRN3 / RFU, ADK / Fold change vs veh, ADK / RFU, RASSF2 / Fold change vs veh, RASSF2 / RFU, WIPF1 / Fold change vs veh, WIPF1 / RFU, LARP1B / Fold change vs veh, LARP1B / RFU, RASA1 / Fold change vs veh, RASA1 / RFU, RB1 / Fold change vs veh, RB1 / RFU, PPFIA1 / Fold change vs veh, PPFIA1 / RFU, MAT2A / Fold change vs veh, MAT2A / RFU, CCT5 / Fold change vs veh, CCT5 / RFU, WDR92 / Fold change vs veh, WDR92 / RFU, CUX1 / Fold change vs veh, CUX1 / RFU, TTC7A / Fold change vs veh, TTC7A / RFU, TMEM135 / Fold change vs veh, TMEM135 / RFU, DEPTOR / Fold change vs veh, DEPTOR / RFU, CPM / Fold change vs veh, CPM / RFU, DNAJB6 / Fold change vs veh, DNAJB6 / RFU, CACNA2D3 / Fold change vs veh, CACNA2D3 / RFU, DTX4 / Fold change vs veh, DTX4 / RFU, TFCP2 / Fold change vs veh, TFCP2 / RFU, GMCL1 /// GMCL1P1 / Fold change vs veh, GMCL1 /// GMCL1P1 / RFU, AEBP2 / Fold change vs veh, AEBP2 / RFU, SNHG1 /// SNORD22 /// SNORD25 /// SNORD26 /// SNORD27 /// SNORD28 /// SNORD29 /// SNORD31 / Fold change vs veh, SNHG1 /// SNORD22 /// SNORD25 /// SNORD26 /// SNORD27 /// SNORD28 /// SNORD29 /// SNORD31 / Fold change (Aza/veh), C12orf56 (ProbeSet 11735607_a_at) / Fold change (ACY-1035/veh), C12orf56 (ProbeSet 11735607_a_at) / Fold change (Aza/veh), FGFR1OP (ProbeSet 11751329_s_at) / Fold change (ACY-1035/veh), FGFR1OP (ProbeSet 11751329_s_at) / Fold change (Aza/veh), VPS36 (ProbeSet 11739960_a_at) / Fold change (ACY-1035/veh), VPS36 (ProbeSet 11739960_a_at) / RFU SYPL1 (11715823_x_at) / Fold change /veh SYPL1 (11715823_x_at) / RFU IGFBP7 (11715501_s_at) / Fold change /veh IGFBP7 (11715501_s_at) / RFU REEP3 (11722064_at) / Fold change /veh REEP3 (11722064_at) / RFU IGLL1 (11728026_x_at) / Fold change /veh IGLL1 (11728026_x_at): dose or concentration left out as unconfirmed
Settings: ProbeSet 11732154_at; LIST B

Nc1ccc(-c2cccs2)cc1NC(=O)c1ccc2c(c1)cc(C1CC1)n2CCN1CCOCC1 [ACY-1035]
Fold change vs veh, OGT: 1.05
